Results from patent US6348487B1, “2-phenyl benzimidazole derivatives as MCP-1 antagonists” (Millennium Pharmaceuticals, Inc., priority 1996, dated 2002).
Values joined by “and” are separate entries in the source; they are usually repeats but may differ in a detail not shown here. Identical values can stand only once. Marks after values point to notes of the source that are not given here.

Columns and labels:
[1] = test system: T lymphocyte blast cells (CD3-Blasts); experiment: CD3-Blast Chemotaxis Assay (transendothelial migration to MCP-1); assay type: cell-based, human; settings: 10 μM compound; MCP-1 about 10 nM; ECV304 endothelial coated Transwells
Description: Recombinant human MCP-1 was obtained from Peprotech (Rockey Hill, N.J.). T lymphocyte blast cells (CD3-Blasts) were generated by standard protocols (Coligan, J. E., A. M. Kruisbeek, D. H. Macgulies, E. M. Shevach, and W. Strober, editors. 1992. Current Protocols in Immunology. John Wiley and Sons, New York 7.1.2, 7.10.1-7.10. 10). Briefly, human peripheral blood mononuclear cells (PBMC) were isolated from heparinized venous blood by Percoll density gradient centrifugation (d=1.088) at room temperature. RBCs were removed by hypotonic lysis or dextran sedimentation. Blast cells were generated by incubating 2×10^6 PBMC in 24-well tissue culture plates that were coated with 2.5 μg of an anti-CD3 monoclonal antibody (identified as TR66, a gift from Dr. A. Lanzivecchia; similar monoclonal antibody is HIT3a, from Parmingen #30111A) at 37° C. for 48 to 72 hours, and then transferring 12 wells to T25 or T75 flasks with RPMI (Roswell Park Memorial Institute 1640, a growth cell medium available from Gibco/RBL, Inc., New York)+10% FCS (fetal calf serum)+50 units/ml IL-2. The cells are expanded and cultured for up to 3 weeks. CD3-Blast chemotaxis was assessed no sooner than 3 to 4 days after transfer to the IL-2 containing medium using a modification of a transendothelial migration assay (Carr. M. W., S. J. Roth, B. Luther, S. S. Rose, and T. A. Springer. 1994. Monocyte chemoattractant protein 1 acts as a T-lymphocyte chemoattractant. Proc. Natl. Acad. Sci. USA 91:3652-6). The endothelial cells used for this assay were the endothelial cell line ECV304. (ECV304 was from the European Collection of Animal Cell Cultures, Porton Downs, UK, assession #92091712). Endothelial cells were cultured on 6.5 mm diameter Transwell culture inserts (Costar) with a […] pore size. […] Background migration was determined by counting cells that migrated in the absence of MCP-1 in the lower chamber. […] The percent inhibition by compounds of directed migration was determined by the following formula: [drawing 32] […]

[2] = test system: T cell recruitment at sites of DHR; experiment: Inhibition of T cell recruitment to rat skin inflammatory (DHR) sites; assay type: in vivo
Experimental: Inbred, approximately 200 g, male Lewis rats were used in all experiments. Cutaneous delayed hypersensitivity (DHR) was induced as previously described (1). Briefly, rats were sensitized to KLH (Sigma Chemical Co., St. Louis, Mo.) by administering 50 μg KLH in 0.1 mL complete Freund's adjuvant (CFA; Sigma Chemical Co.) into each of 4 subcutaneous sites. After 14 days, DHR was elicited by the challenge of 5 μg KLH in PBS into multiple intradermal sites on the back. Analysis was performed 24 hours after antigen challenge. For each experiment, there were at least three groups of animals of at least four animals in each group. […]
T cell recruitment at sites of DHR was quantified using methods previously described (1-4). […] The cells in the effluent were highly purified (>95%) rat T cells as assessed by anti-rat CD3 (monoclonal antibody KT3, Biosource International, Camarillo, Calif.) immunoreactivity by flow cytometry. […] Skin challenge sites (8 mm in diameter) were counted on a γ counter 24 hours after injection of radiolabeled T cells. Lung, liver, and spleen were also collected and counted as comparative indices for evaluation of input.
Statistical significance was determined using a paired Student's t-test. […]

CCN(CC)CCN(CCN(CC)CC)c1ccc(-c2nc3cc(Cl)c(Cl)cc3[nH]2)cc1 [Example 1, N-[4-(5,6-dichloro-1H-benzimidazol-2-yl)-phenyl]-N-(2-diethylamino-ethyl)-N, N-diethyl-ethane-1,2-diamine]
% Inhibition of Chemotaxis at 10 μM [1]: 62-142* % | inhibition of T cell recruitment in rat DHR ([2]; 30 and 23 mg/kg per os at the time of antigen challenge, 24 hour period (FIG. 2)): statistically significant inhibitory effect | recruitment of 111In-labeled rat T cells to skin DHR sites ([2]; administered once per os at the time of antigen challenge (FIG. 2)): inhibited the recruitment of ^111In-labeled rat T cells to skin DHR sites in a dose-dependent fashion

CN(CCN1CCCCC1)c1ccc(-c2nc3cc(Cl)c(Cl)cc3[nH]2)cc1 [Example 2, N-[4-(5 ,6-dichloro-1H-benzimidazol-2-yl)-phenyl]-N-methyl-N-(2-piperidin-1-yl-ethyl)-amine]
% Inhibition of Chemotaxis at 10 μM [1]: 100% and 102% | melting point: 165 to 167 °C
